Results reported in US8163906B2, “Dihydroquinone and dihydronaphthridine inhibitors of JNK” (Roche Palo Alto, LLC, priority 2007, dated 2012).

Tested on: not given
Experiment: not given
Conditions: not given

Row | SMILES | melting point [°C]
1 | COC(=O)c1ccc(Cc2c(C(=O)OC)n(-c3ccccc3)c3nc(C)ccc3c2=O)cn1 [Compound 100, 3-(6-Methoxycarbonyl-pyridin-3-ylmethyl)-7-methyl-4-oxo-1-phenyl-1,4-dihydro[1,8]naphthyridine-2-carboxylic Acid Methyl Ester] | 177 to 178
2 | COC(=O)c1c(Cc2ccc(OC)nc2)c(=O)c2ccc(C)nc2n1-c1ccccc1 [Compound 102, 3-(6-Methoxypyridin-3-ylmethyl)-7-methyl-4-oxo-1-phenyl-1,4-dihydro[1,8]naphthridine-2-carboxylic Acid Methyl Ester] | 176 to 177
3 | COC(=O)c1c(Cc2ccc(C(=O)N(C)C)nc2)c(=O)c2ccc(C)nc2n1-c1ccccc1 [Compound 103, 3-(6-Dimethylcarbamoyl-pyridin-3-ylmethyl)-7-methyl-4-oxo-1-phenyl-1,4-dihydro[1,8]naphthyridine-2-carboxylic Acid Methyl Ester] | 235 to 236
4 | COC(=O)c1c(Cc2ccc(S(C)(=O)=O)cc2)c(=O)c2ccc(C(F)(F)F)nc2n1-c1ccccc1 [Compound 115] | 193 to 195
5 | COC(=O)c1c(Cc2ccc(S(=O)(=O)N3CCN(C(=O)OC(C)(C)C)CC3(C)C)cc2)c(=O)c2ccc(F)cc2n1-c1ccccc1 [Compound 113] | 116 to 117
6 | C=CCn1c(C(=O)OC)c(Cc2ccc(S(C)(=O)=O)cc2)c(=O)c2ccc(C)nc21 [Compound 139] | 168 to 169
7 | COCCOC(=O)c1c(Cc2ccccc2)c(=O)c2ccc(F)cc2n1-c1ccccc1 [Compound 130, 3-Benzyl-7-fluoro-4-oxo-1-phenyl-1,4-dihydro-quinoline-2-carboxylic acid 2-methoxy-ethyl ester] | 168 to 169
8 | COC(=O)c1c(Cc2ccc(S(=O)(=O)C(C)CO)cc2)c(=O)c2ccc(C)nc2n1-c1ccccc1 (stereo not shown) [Compound 119] | 195.9 to 197.2
9 | COC(=O)c1c(Cc2ccc(S(C)(=O)=O)nc2)c(=O)c2ccc(C)nc2n1-c1ccccc1 [Compound 92, 3-(6-Methanesulfonyl-pyridin-3-ylmethyl)-7-methyl-4-oxo-1-phenyl-1,4-dihydro[1,8]naphthyridine-2-carboxylic Acid Methyl Ester] | 217 to 218
10 | COC(=O)c1c(Cc2ccc(C#N)cc2)c(=O)c2ccc(F)cc2n1-c1ccccc1 [Compound 124] | 218 to 219
11 | COC(=O)c1c(Cc2ccc(Cl)nc2)c(=O)c2ccc(C)nc2n1-c1ccccc1 [Compound 83, 3-(6-chloro-pyridin-3-ylmethyl)-7-methyl-4-oxo-1-phenyl-1,4-dihydro[1,8]naphthyridine-2-carboxylic acid methyl ester] | 220 to 220.5
12 | COC(=O)c1c(Cc2ccc(C(=O)NCCO)cc2)c(=O)c2ccc(C(F)(F)F)nc2n1-c1ccccc1 [Compound 116] | 170 to 173
13 | COC(=O)c1c(Cc2ccc(SCCO)cc2)c(=O)c2ccc(F)cc2n1-c1ccccc1 [Compound 111] | 163 to 164
14 | COC(=O)c1c(Cc2ccc(C(=O)CBr)cc2)c(=O)c2ccc(C)nc2n1-c1ccccc1 [Compound 89, 3-[4-(2-bromoacetyl)-benzyl]-7-methyl-4-oxo-1-phenyl-1,4-dihydro-[1,8]naphthyridine-2-carboxylic acid methyl ester] | 189 to 191.1
15 | CCOC(=O)c1c(Cc2ccccc2)c(=O)c2ccc(Cl)cc2n1-c1ccccc1 [Compound 121] | 179 to 180
16 | O=c1c(Cc2ccccc2)c(-c2ncco2)n(-c2ccccc2)c2cc(Cl)ccc12 [Compound 140, 3-benzyl-7-chloro-2-oxazol-2-yl-1-phenyl-1H-quinolin-4-one] | 219 to 220
17 | COC(=O)c1c(Cc2ccc(S(=O)(=O)N3CCN(C(=O)OC(C)(C)C)CC3)cc2)c(=O)c2ccc(F)cc2n1-c1ccccc1 [Compound 108] | 120 to 121
18 | COC(=O)c1c(Cc2ccccc2)c(=O)c2ccc(Cl)cc2n1-c1ccccc1 [Compound 120] | 200 to 201
19 | CCNC(=O)c1ccc(Cc2c(C(=O)OC)n(-c3ccccc3)c3nc(C)ccc3c2=O)cn1 [Compound 101, 3-(6-Ethylcarbamoyl-pyridin-3-ylmethyl)-7-methyl-4-oxo-1-phenyl-1,4-dihydro[1,8]naphthyridine-2-carboxylic Acid Methyl Ester] | 208 to 209

Next, values leading:

Row | melting point [°C] | SMILES
20 | 136 to 137 | CCOC(=O)C1CCN(Cc2c(C(=O)OC)n(-c3ccccc3)c3cc(F)ccc3c2=O)CC1 [Compound 133]
21 | 193.6 to 194.9 | COC(=O)c1c(Cc2ccc(S(=O)(=O)C(C)CO)cc2)c(=O)c2ccc(F)cc2n1-c1ccccc1 (stereo not shown) [Compound 118]
22 | 190 to 191 | COC(=O)c1c(CN2CCC(S(C)(=O)=O)CC2)c(=O)c2ccc(F)cc2n1-c1ccccc1 [Compound 126, 7-fluoro-3-(4-methanesulfonyl-piperidin-1-ylmethyl)-4-oxo-1-phenyl-1,4-dihydro-quinoline-2-carboxylic acid methyl ester]
23 | 159 to 160 | COC(=O)c1c(CN2CCC(C#N)CC2)c(=O)c2ccc(F)cc2n1-c1ccccc1 [Compound 136]
24 | 107 to 110 | COC(=O)c1c(CN2CCn3c(nnc3C(F)(F)F)C2)c(=O)c2ccc(F)cc2n1-c1ccccc1 [Compound 134]
25 | 119 to 120 | COC(=O)c1c(CN2CCS(=O)(=O)CC2)c(=O)c2ccc(F)cc2n1-c1ccccc1 [Compound 132]
26 | 211 to 212 | COC(=O)c1c(Cc2ccc(S(=O)(=O)N3CCNCC3(C)C)cc2)c(=O)c2ccc(F)cc2n1-c1ccccc1.Cl
27 | 206 to 207 | COC(=O)c1c(Cc2cnc(OC)nc2)c(=O)c2ccc(F)cc2n1-c1ccccc1 [Compound 125]
28 | 205 to 207 | COC(=O)c1c(CN2CCN(S(C)(=O)=O)CC2)c(=O)c2ccc(F)cc2n1-c1ccccc1 [Compound 131]
29 | 214 to 215 | COC(=O)c1c(Cc2ccc(S(=O)(=O)N3CCNCC3)cc2)c(=O)c2ccc(F)cc2n1-c1ccccc1.Cl
30 | 169 to 170 | COC(=O)c1c(CN2CCOCC2)c(=O)c2ccc(F)cc2n1-c1ccccc1 [Compound 123]
31 | 165 to 166 | COC(=O)c1c(Cc2ccc(S(=O)(=O)CCO)cc2)c(=O)c2ccc(F)cc2n1-c1ccccc1 [Compound 112]

Target: Human JNK1α1 (Homo sapiens, UniProt P45983)
Sequence (P45983 1-384 isoform P45983-2): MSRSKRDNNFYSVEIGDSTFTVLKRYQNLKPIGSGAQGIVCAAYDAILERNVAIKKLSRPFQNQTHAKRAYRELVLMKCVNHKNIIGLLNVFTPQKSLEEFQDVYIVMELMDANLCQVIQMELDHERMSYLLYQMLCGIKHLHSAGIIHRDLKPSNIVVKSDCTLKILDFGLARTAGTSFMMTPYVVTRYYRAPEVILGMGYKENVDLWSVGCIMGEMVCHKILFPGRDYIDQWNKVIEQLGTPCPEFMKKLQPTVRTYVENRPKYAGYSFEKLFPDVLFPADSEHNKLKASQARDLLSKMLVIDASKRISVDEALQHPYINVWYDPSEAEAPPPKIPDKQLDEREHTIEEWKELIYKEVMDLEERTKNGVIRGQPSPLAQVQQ
Experiment: JNK assay in vitro, phosphorylation of GST-ATF2 with [γ-33P] ATP (JNK1)
Assay type: biochemical
Conditions: ATP at Km (6 μM), 1 μM ATF2, 30° C. 30 min; read-out: IC50 vs. JNK1
Method: (§1) JNK activity was measured by phosphorylation of GST-ATF2 (19-96) with [γ-^33P] ATP. […] Human JNK2α2 assay contains 1 nM enzyme, 1 μM ATF2, 8 μM ATP with 1 uCi [γ-^33P] ATP. Human JNK1α1 assay contains 2 nM enzyme, 1 μM ATF2, 6 μM ATP with 1 μCi [γ-^33P] ATP. […] ATP. The enzyme assay was carried out in the presence or absence of several compound concentrations. JNK and compound were pre-incubated for 10 min., followed by initiation of the enzymatic reaction by adding ATP and the substrate. The reaction mixture was incubated at 30° C. for 30 min. […] The incorporation of ^33P into ATF2 was quantified on a microplate scintillation counter (Packard Topcount). Compound inhibition potency on JNK was measured by IC50 value generated from ten concentration inhibition curves fitted into the 3-parameter model: % inhibition=Maximum/(1+(IC50/[Inhibitor])^slope). Data were analyzed on Microsoft Excel for parameter estimation.

Row | SMILES | IC50 [µM]
32 | COC(=O)c1c(Cc2cnn(C)c2)c(=O)c2ccc(C(F)(F)F)nc2n1-c1ccccc1 [Compound 129, 3-(1-methyl-1H-pyrazol-4-ylmethyl)-1-4-oxo-phenyl-7-trifluoromethyl-1H-[1,8]naphthyridine-2-carboxylic acid methyl ester] | 0.252
33 | CNS(=O)(=O)c1ccc(Cc2c(C(=O)OC)n(-c3ccccc3)c3cc(Cl)ccc3c2=O)cc1 [Compound 44, 7-Chloro-3-(4-methylsulfamoyl-benzyl)-4-oxo-1-phenyl-1,4-dihydroquinoline-2-carboxylic acid methyl ester] | 0.0491
34 | CC(=O)c1c(Cc2ccc(S(=O)(=O)NCC(C)(C)O)cc2)c(=O)c2ccc(Cl)cc2n1-c1ccccc1 [Compound 88, 3-[4-(2-hydroxy-2-methylpropylsulfonamoyl)benzyl]-4-oxo-7-chloro-1-phenyl-2-acetyl-1,4-dihydroquinoline] | 0.245

Target: Human JNK2α2 (Homo sapiens, UniProt P45984)
Sequence (P45984 whole entry): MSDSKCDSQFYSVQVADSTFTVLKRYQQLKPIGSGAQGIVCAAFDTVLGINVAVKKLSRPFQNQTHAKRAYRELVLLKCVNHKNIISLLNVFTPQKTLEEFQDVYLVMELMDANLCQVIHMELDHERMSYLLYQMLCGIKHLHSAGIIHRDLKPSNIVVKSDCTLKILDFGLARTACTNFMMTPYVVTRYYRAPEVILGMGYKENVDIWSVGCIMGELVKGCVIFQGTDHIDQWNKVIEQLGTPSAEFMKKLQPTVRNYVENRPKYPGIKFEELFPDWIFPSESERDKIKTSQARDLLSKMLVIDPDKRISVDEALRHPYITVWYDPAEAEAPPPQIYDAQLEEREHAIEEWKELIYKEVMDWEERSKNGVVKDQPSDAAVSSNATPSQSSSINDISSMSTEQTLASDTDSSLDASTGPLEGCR
Experiment: JNK assay in vitro, phosphorylation of GST-ATF2 with [γ-33P] ATP (JNK2)
Assay type: biochemical
Conditions: ATP at Km (8 μM), 1 μM ATF2, 30° C. 30 min
Method: as §1

Row | SMILES | IC50 [µM]
35 | COC(=O)c1ccc(Cc2c(C(=O)OC)n(-c3ccccc3)c3nc(C)ccc3c2=O)cn1 [Compound 100, 3-(6-Methoxycarbonyl-pyridin-3-ylmethyl)-7-methyl-4-oxo-1-phenyl-1,4-dihydro[1,8]naphthyridine-2-carboxylic Acid Methyl Ester] | 0.226
36 | COC(=O)c1c(Cc2cnn(C)c2)c(=O)c2ccc(C(F)(F)F)nc2n1-c1ccccc1 [Compound 129, 3-(1-methyl-1H-pyrazol-4-ylmethyl)-1-4-oxo-phenyl-7-trifluoromethyl-1H-[1,8]naphthyridine-2-carboxylic acid methyl ester] | 0.562
37 | CC(=O)c1c(Cc2ccc(S(=O)(=O)NCC(C)(C)O)cc2)c(=O)c2ccc(Cl)cc2n1-c1ccccc1 [Compound 88, 3-[4-(2-hydroxy-2-methylpropylsulfonamoyl)benzyl]-4-oxo-7-chloro-1-phenyl-2-acetyl-1,4-dihydroquinoline] | 0.84
